The values that follow are results of earlier work, collected in patent US9173857B2, “Controlled dose drug delivery system” (Shire LLC, priority 2006, dated 2015).

Molecules are shown by their SMILES.

The conditions of data set [1]: pulsatile capsule with release after a nominal 5-hr period; majority of subjects.
The conditions of data set [2]: wax-surfactant coating, higher coating level (60%).

Consider `C[C@H](CS)C(=O)N1CCC[C@H]1C(=O)O` [captopril], for which the “amounts of the drug observed in the blood” value in data set [1] was “no measurable amounts”.

Take `Cn1c(=O)c2[nH]cnc2n(C)c1=O` [theophylline]: in data set [2], the “lag time of drug release” value was “two-hour” and the “time required for complete release after the lag time” value is listed as “three hours”.
